Measured values reported in ChEMBL document CHEMBL1130868, “Synthesis of betulinic acid derivatives with activity against human melanoma” (1998).
Values after ≈ are worked out from the molar mass of the structure shown.

What was measured:
KB = experiment: Cytotoxicity against human epidermoid carcinoma of the mouth (KB) cell line.; assay type: functional; conditions: read-out: ED50 (the source's name)
SK-MEL-2 = experiment: Cytotoxicity against cultured human melanoma (MEL-2) cell line.; assay type: functional; conditions: read-out: ED50 (the source's name)

| SMILES | EC50 (KB) [µg/mL] | EC50 (SK-MEL-2) [µg/mL] |
| --- | --- | --- |
| CO/N=C1\CC[C@]2(C)[C@H]3CC[C@@H]4[C@H]5[C@H](C(C)C)CC[C@]5(C(=O)O)CC[C@@]4(C)[C@]3(C)CC[C@H]2C1(C)C | > 20 | > 20 |
| CC(C)[C@@H]1CC[C@]2(C(=O)O)CC[C@]3(C)[C@H](CC[C@@H]4[C@@]5(C)CC/C(=N\O)C(C)(C)[C@@H]5CC[C@]43C)[C@@H]12 | > 20 | 2.2 (≈ 4.66 µM) |
| C=C(C)[C@@H]1CC[C@]2(C(=O)O)CC[C@]3(C)[C@H](CC[C@@H]4[C@@]5(C)CC/C(=N\OC)C(C)(C)[C@@H]5CC[C@]43C)[C@@H]12 | 4.3 (≈ 8.89 µM) | 8.3 (≈ 17.2 µM) |
| C=C(C)[C@@H]1CC[C@]2(C)CC[C@]3(C)[C@H](CC[C@@H]4[C@@]5(C)CC[C@H](OC(=O)c6ccccc6)C(C)(C)[C@@H]5CC[C@]43C)[C@@H]12 | > 20 | > 20 |
| C=C(C)[C@@H]1CC[C@]2(/C=N/OC)CC[C@]3(C)[C@H](CC[C@@H]4[C@@]5(C)CC/C(=N\OC)C(C)(C)[C@@H]5CC[C@]43C)[C@@H]12 | 20 (≈ 40.3 µM) | > 20 |
| C=C(C)[C@@H]1CC[C@]2(C(=O)O)CC[C@]3(C)[C@H](CC[C@@H]4[C@@]5(C)CC[C@H](N)C(C)(C)[C@@H]5CC[C@]43C)[C@@H]12 | – | 1.3 (≈ 2.85 µM) |
| C=C(C)[C@@H]1CC[C@]2(/C=N/O)CC[C@]3(C)[C@H](CC[C@@H]4[C@@]5(C)CC/C(=N\O)C(C)(C)[C@@H]5CC[C@]43C)[C@@H]12 [BETULIN-3,28-DIOXIME] | 3.3 (≈ 7.04 µM) | 2.2 (≈ 4.69 µM) |
| C=C(C)[C@@H]1CC[C@]2(C(=O)O)CC[C@]3(C)[C@H](CC[C@@H]4[C@@]5(C)CC[C@H](O)C(C)(C)[C@@H]5CC[C@]43C)[C@@H]12 [BETULINIC ACID] | > 20 | 1.2 (≈ 2.63 µM) |
| C=C(C)[C@@H]1CC[C@]2(CO)CC[C@]3(C)[C@H](CC[C@@H]4[C@@]5(C)CC[C@H](O)C(C)(C)[C@@H]5CC[C@]43C)[C@@H]12 [BETULIN] | > 20 | > 20 |
| C=C(C)[C@@H]1CC[C@]2(C=O)CC[C@]3(C)[C@H](CC[C@@H]4[C@@]5(C)CCC(=O)C(C)(C)[C@@H]5CC[C@]43C)[C@@H]12 [BETULONAL] | 12.9 (≈ 29.4 µM) | 7.4 (≈ 16.9 µM) |
| C=C(C)[C@@H]1CC[C@]2(C(=O)O)CC[C@]3(C)[C@H](CC[C@@H]4[C@@]5(C)CCC(=O)C(C)(C)[C@@H]5CC[C@]43C)[C@@H]12 [BETUNOLIC ACID] | 2.5 (≈ 5.5 µM) | 0.9 (≈ 1.98 µM) |
| CC(C)[C@@H]1CC[C@]2(C(=O)O)CC[C@]3(C)[C@H](CC[C@@H]4[C@@]5(C)CC[C@H](O)C(C)(C)[C@@H]5CC[C@]43C)[C@@H]12 [DIHYDROBETULINIC ACID] | > 20 | 5.8 (≈ 12.6 µM) |
| CC(C)[C@@H]1CC[C@]2(C(=O)O)CC[C@]3(C)[C@H](CC[C@@H]4[C@@]5(C)CCC(=O)C(C)(C)[C@@H]5CC[C@]43C)[C@@H]12 [DIHYDROBETULONIC ACID] | > 20 | 0.7 (≈ 1.53 µM) |
| C=C(C)[C@@H]1CC[C@]2(C)CC[C@]3(C)[C@H](CC[C@@H]4[C@@]5(C)CC[C@H](O)C(C)(C)[C@@H]5CC[C@]43C)[C@@H]12 [LUPEOL] | > 20 | 17.6 (≈ 41.2 µM) |
| C=C(C)[C@@H]1CC[C@]2(C(=O)OC)CC[C@]3(C)[C@H](CC[C@@H]4[C@@]5(C)CC[C@H](O)C(C)(C)[C@@H]5CC[C@]43C)[C@@H]12 [METHYL BETULINATE] | 11.8 (≈ 25.1 µM) | 8.3 (≈ 17.6 µM) |
